The record followed here is the Deep4Chem optical property database.

The nature of the data set: solvent given as SMILES.

`c1cc2oc3cccc4oc5cccc6oc(c1)c2[c+](c34)c65` registered an emission maximum (in CC#N) of 524 nm.

The compound `CCCCCCn1c2ccsc2c2sc3c(sc4c5sccc5n(CCCCCC)c43)c21` came in with an emission maximum (in ClCCl) of 411 nm.

Consider `Oc1ccccc1`, for which, for the setting “in C1CCCCC1”, the emission maximum is on record as 294.99 nm.

`c1ccc(-c2nc(-c3ccccc3)nc(-c3ccc(-n4c5ccccc5c5cc(-c6ccc7c(c6)c6ccccc6n7-c6ccccc6)ccc54)cc3)n2)cc1` returned an emission maximum (in O=P(c1ccccc1)(c1ccccc1)c1ccccc1Oc1ccccc1P(=O)(c1ccccc1)c1ccccc1) of 458.07 nm.

With `COc1ccc(C2=N/C(=C\c3ccc(C#N)cc3)C(=O)N2)cc1OC`, under “in C1COCCO1”, the emission maximum is 482 nm.

As for `CCC1=C(C)C2=C(c3cc(C4=C5C(C)=C(CC)C(C)=[N+]5[B-](F)(F)n5c(C)c(CC)c(C)c54)cc(C4=C5C(C)=C(CC)C(C)=[N+]5[B-](F)(F)n5c(C)c(CC)c(C)c54)c3)c3c(C)c(CC)c(C)n3[B-](F)(F)[N+]2=C1C`, the emission maximum by setting is: (in C1CCOC1) 567 nm; (in CC#N) 556 nm; (in CN(C)C=O) 570 nm; (in Cc1ccccc1) 571 nm; (in ClC(Cl)Cl) 571 nm.

The compound `CC1(C)c2ccccc2N(c2ccc(C(=C(C#N)C#N)c3ccc(N4c5ccccc5C(C)(C)c5ccccc54)cc3)cc2)c2ccccc21` registered an emission maximum (in Cc1ccccc1) of 649 nm.

As to `CC1(C)C(/C=C/C2=C(Oc3ccc(CCN=C=S)cc3F)C(=C/C=C3/N(CCCS(=O)(=O)[O-])c4ccccc4C3(C)C)/CCC2)=[N+](CCCS(=O)(=O)[O-])c2ccccc21`, under “in CO”, the emission maximum is on record as 797 nm.

`CCCCC(CC)CN1C(=O)c2cc(Oc3ccc(C(C)(C)C)cc3)c3c4c(Oc5ccc(OC)cc5)cc5c6c(cc(Oc7ccc(OC)cc7)c(c7c(Oc8ccc(C(C)(C)C)cc8)cc(c2c37)C1=O)c64)C(=O)N(c1c(C(C)C)cccc1C(C)C)C5=O` (stereo not drawn) yielded an emission maximum (in Cc1ccccc1) of 608 nm.

Turning to `CCCCc1cc(-c2cccc(COC)c2)oc1-c1cccc(-c2oc(-c3cccc(COC)c3)cc2CCCC)c1`, the emission maximum (in ClC(Cl)Cl) was 371 nm.

Take `COc1cc2c(cc1-c1ccc(C)cc1)Cc1c3c(c4c(c1-2)-c1cc(OC)c(-c2ccc(C)cc2)cc1C4)C(=O)N(CCC(C)C)C3=O`: the emission maximum (in C1CCOC1) is 476 nm.

`CC(C)(C)c1cc2c(c(C(C)(C)C)c1)O[B-](F)(F)[n+]1c-2nc(-c2ccccc2)c2cc(Cl)ccc21` showed an emission maximum (in Cc1ccccc1) of 552 nm.

Where the note is “in CN(C)C=O”, `Fc1cc(-c2ccc(-c3nc4cc(Br)ccc4[nH]3)cc2)ccc1-c1ccc(-c2nc3cc(Br)ccc3[nH]2)cc1` yielded an emission maximum of 417 nm.

As for `O=S(=O)(c1cccc(N2c3ccccc3Sc3ccccc32)c1)c1cccc(N2c3ccccc3Sc3ccccc32)c1`, the emission maximum (in C1CCOC1) came out at 596 nm; the emission maximum (in CCCCC(CC)n1c2ccc(-n3c4ccccc4c4ccccc43)cc2c2cc(-n3c4ccccc4c4ccccc43)ccc21) is 554.57 nm; the emission maximum (in Cc1ccccc1) was determined as 561 nm; the emission maximum (in ClC(Cl)Cl) is on record as 579 nm; the emission maximum (in c1cc(-n2c3ccccc3c3ccccc32)cc(-n2c3ccccc3c3ccccc32)c1) is 550.83 nm.

`CN(C)c1ccc(C#Cc2ncnc3ccccc23)cc1`: the emission maximum by setting is: (in C1CCCCC1) 444 nm; (in C1CCOC1) 540 nm; (in CC#N) 573 nm; (in CS(C)=O) 583 nm; (in ClCCl) 560 nm.

In turn, `Fc1c(-n2c3ccccc3c3ccccc32)c(F)c(-n2c3ccccc3c3ccccc32)c(-c2nnc(-c3ccccc3)o2)c1-n1c2ccccc2c2ccccc21` yielded an emission maximum (in Cc1ccccc1) of 490 nm.

The compound `F[B-]1(F)n2c(ccc2-c2ccccc2)C(C(F)(F)F)=C2C=CC(c3ccccc3)=[N+]21` displayed an emission maximum (in CCCCCC) of 622 nm.

With `CC(=O)c1ccc(/C=C/C=C/C2=NC3C(=O)NC(N)=NC3N2[C@H]2C[C@H](O)[C@@H](CO)O2)cc1` (stereo partly drawn), the emission maximum amounted to 494 nm (in C1COCCO1), 547 nm (in CC#N) and 554 nm (in CO).

Take `CC(C)(C)c1ccc2oc3nc4oc5ccc(N6c7ccccc7Sc7ccccc76)cc5c4cc3c2c1`: the emission maximum (in ClC(Cl)Cl) is 371 nm.
